The test system of this assay is PD-1-overexpressing Jurkat cells. In words: Small molecule screen: IL2 secretion (AlphaLISA) from stimulated PD-1-overexpressing Jurkat cells. The format is cell-based, human. Conditions: 3.3 μM compound; for Zscore_1 / Zscore_2: IL2 level, α-CD3/α-CD28/α-PD-1 beads; for Zscore_1: replicate 1; for Zscore_2: replicate 2; for Zscore_AVG: average of replicate Z scores. The procedure:
PD-1-overexpressing Jurkat cells were plated at a concentration of 100,000 cells/well in a total volume of 80 μl. […] Dynabeads conjugated to α-CD3, α-CD28, and α-PD-1 antibodies were added in 20 for a final assay volume of 100 with a final compound concentration of 3.3 μM and an 8:1 bead:cell ratio. Beads were conjugated to α-CD3/α-CD28/control IgG and added to wells containing DMSO-treated cells as a positive control, while beads conjugated to α-CD3/α-CD28/α-PD1 were added to wells containing DMSO-treated cells as a negative control. Supernatants from each well were analyzed for IL2 levels by AlphaLISA (Perkin Elmers) according to the manufacturer's protocol. Average and standard deviation values were calculated from the PD-1 controls (DMSO-treated cells stimulated with α-CD3/α-CD28/α-PD-1 beads); hits were defined as compounds scoring at least 3 standard deviations from the mean of the controls.
In addition to known negative regulators of IL-2 production (e.g. glycogen synthase kinase-3α/β (GSK3α/β) (24,25)), this screen identified cyclin-dependent kinases 4 and 6 inhibitors (CDK4/6i) as top hits (Table 1).
A general note: Bead proximity is the source of the signal in Alpha formats.

Values joined by “and” are separate entries in the source; they are usually repeats but may differ in a detail not shown here. Identical values can stand only once.

`CC[n+]1c(/C=C/N(C)c2ccccc2)n(-c2ccccc2)c2ccc(-c3nc4ccccc4s3)cc21.[I-]` [Akt Inhibitor IV] gave a Zscore_1 of −5.269, a Zscore_2 of −6.844 and a Zscore_AVG of −6.057.

With `O=c1[nH]c2ccccc2n1C1CCN(Cc2ccc(-c3nc4cc5nc[nH]c5cc4nc3-c3ccccc3)cc2)CC1` [Akt Inhibitor VIII, Isozyme- Selective, Akti-1/2], the Zscore_1 amounted to 1.673, the Zscore_2 worked out at 1.052 and the Zscore_AVG came out at 1.362.

In turn, `CCN(CC)CCCCN1c2ccccc2Oc2ccc(Cl)cc21` [Akt Inhibitor X] had a Zscore_1 of 2.25, a Zscore_2 of 6.382 and a Zscore_AVG of 4.316.

With `CCCCc1c(-c2ccc(O)cc2)[nH]c2nccnc12` [Aloisine A, RP107], the Zscore_1 is recorded as −3.301, the Zscore_2 is −1.322 and the Zscore_AVG is on record as −2.311.

`CCCCc1c(-c2ccc(OC)cc2)[nH]c2nccnc12` [Aloisine, RP106]: the Zscore_1 is −0.8722, the Zscore_2 was −4.242 and the Zscore_AVG is −2.557.

In the case of `N#CCCc1ccc2c(c1)-c1[nH]c3ccc([N+](=O)[O-])cc3c1CC(=O)N2` [Alsterpaullone, 2-Cyanoethyl], the Zscore_1 is listed as −5.269, the Zscore_2 is given as −7.447 and the Zscore_AVG is listed as −6.358.

Compound `O=C1Cc2c([nH]c3ccc([N+](=O)[O-])cc23)-c2ccccc2N1` [Alsterpaullone] registered a Zscore_1 of −0.7783, a Zscore_2 of −3.341 and a Zscore_AVG of −2.06.

`CC(C)[C@H](CO)Nc1nc(Nc2cc(N)cc(Cl)c2)c2ncn(C(C)C)c2n1` [Aminopurvalanol A]: the Zscore_1 is listed as −3.687, the Zscore_2 is listed as −3.638 and the Zscore_AVG is reported as −3.662.

`O=C1NC(=O)c2c1c1c3ccccc3[nH]c1c1[nH]c3ccccc3c21` [Arcyriaflavin A, Synthetic]: the Zscore_1 came out at 3.889, the Zscore_2 amounted to 5.674 and the Zscore_AVG is 4.782.

`O=C(Nc1cccc(Nc2nccc(Nc3cccc(C(F)(F)F)c3)n2)c1)C1CC1` [Aurora Kinase Inhibitor III]: the Zscore_1 is 7.108 and 2.737; the Zscore_2 was 6.482 and −0.8139; the Zscore_AVG was 6.795 and 0.9614.

As for `COc1cc2ncnc(Nc3ccc(NC(=O)c4ccccc4)cc3)c2cc1OC` [Aurora Kinase Inhibitor II], the Zscore_1 is on record as −0.6024, the Zscore_2 is recorded as 2.958 and the Zscore_AVG is 1.178.

The compound `Nc1nc(Nc2ccc(S(N)(=O)=O)cc2)nn1C(=O)c1c(F)cccc1F` [Aurora Kinase/Cdk Inhibitor] had a Zscore_1 of −1.131, a Zscore_2 of −3.054 and a Zscore_AVG of −2.093.

`Cc1ccc(S(=O)(=O)/C=C/C#N)cc1` [BAY 11-7082] had a Zscore_1 of −3.877, a Zscore_2 of −4.461 and a Zscore_AVG of −4.169.

For `Cn1cnc2cc3c(Nc4cccc(Br)c4)ncnc3cc21` [BPIQ-I], the Zscore_1 is given as 0.6533, the Zscore_2 came to 1.97 and the Zscore_AVG was determined as 1.312.

`NC(=O)c1cccc(-c2cc(Nc3ccc(OC(F)(F)F)cc3)ncn2)c1` [Bcr-abl Inhibitor] showed a Zscore_1 of 1.402, a Zscore_2 of 5.274 and a Zscore_AVG of 3.338.

`Cl.NCCCn1cc(C2=C(c3c[nH]c4ccccc34)C(=O)NC2=O)c2ccccc21` [Bisindolylmaleimide III, Hydrochloride]: the Zscore_1 is listed as −3.661, the Zscore_2 is recorded as −5.093 and the Zscore_AVG is −4.377.

The values above are taken from patent US11865176B2, “Compositions and methods of modulating anti-tumor immunity” (Dana-Farber Cancer Institute, Inc., priority 2016, dated 2024).
